The test concerns Sprague-Dawley rats. The test can be described thus: Rat lick study (Davis Rig) on saccharin, citric acid and quinine. The note with it: water 192 licks. It counts as in vivo. The protocol:
Bitter blocker prepared as described above in Example 2, at 5, 25, 50 and 100 mg/L alone (called CLEARTASTE® herein) and added to each solution below:
Sucrose 250 mM; Saccharin 10 mM; MSG 150 mM; NaCl 400 and 800 mM; Citric Acid 10 mM; Quinine 0.08 and 0.16 mM.
16 naïve, adult (>50 days old, approximately 200 gram body weight), male Sprague-Dawley rats were tested in the MS-160 “Davis Rig,” manufactured by DiLog Instruments, Inc. We measured licking behavior at a resolution of 1 ms during the controlled presentation of up to 16 taste stimuli. The Davis Rig is housed inside an acoustic isolation chamber utilizing a white noise generator. Intake and exhaust fans located on opposing walls of the chamber direct constant air flow along the longitudinal axis of the stimulus delivery tray in order to reduce olfactory cues for any given stimulus. Therefore all licking behavior during brief (30 s duration) trials was motivated by orosensory/taste sensations. Rats were trained to lick during trials presenting water as the stimulus in the Davis Rig for three consecutive days prior to the start of testing. Each daily test session contained two blocks of 15 trials producing two replications of each test stimulus within each daily session. We tested the rats for a total of eight days.

For `C=C[C@H]1C[N@@]2CC[C@H]1C[C@H]2[C@H](O)c1ccnc2ccc(OC)cc12` [quinine], the licks is given as 170 licks (0.08 mM quinine alone) and 70 licks (0.16 mM quinine alone).

These data come from patent US20260130959A1, “FUNGAL EXTRACTS AND FLAVOR COMBINATIONS THEREOF” (MYCOTECHNOLOGY, INC., priority 2019, published 2026).
